Experimental data from patent US20050244427A1, “Isolation and production of bioactive marine products” (priority 2004, published 2005).

Test system: Symbiodinium cells isolated from Eunicea fusca
Assay: Effect of plant growth factors on fuscol production in in vitro cultures of alga cells isolated from Eunicea fusca
Format: cell-based
Conditions: One hundred μM added for 48 hours after 24 hours in culture medium; compared with untreated control cells; RP HPLC, detection at 240 nm; FIG. 4
Protocol: FIG. 4 is a graph showing the induction of fuscol production in Symbiodinium cells isolated from Eunicea fusca with Methyl Jasmonate, Giberellic Acid and Salicyclic Acid.
Live Eunicea fusca was collected from Florida Keys. The tissue was homogenized in a blender using 50:50 DI/Filtered Seawater (FSW). The homogenate was strained into 50 mL Falcon tubes and centrifuged at 160×g for 5 minutes. The supernatant was discarded and the pellet was resuspended in 50:50 DI/FSW. The sample was centrifuged again, followed by three rounds of rinsing and centrifuging until the supernatant was clear. The cell pellet was layered over a Percoll gradient (30% and 70%) and centrifuged at 38×g for 10 minutes. Cells on the 30/70% interface were collected using a plastic pipet and rinsed two times in 50:50 DI/FSW water. Cells were examined by light microscopy to assess cell purity and to count the number of cells. 2.38×10^8 cells (500 μL) were removed from the sample and diluted to 2 mL with tris buffer (20 mM containing 3 mM EDTA, 5 mM MgCl2 and 5 mM β-mercaptoethanol). The sample was incubated with 1μ Ci ^3H-GGPP for 24 hrs at 29° C. and 180 RPM. The cells were centrifuged and the buffer was removed using a syringe and filtered into a scintillation vial. The cells were extracted with methylene chloride and ethyl acetate (8 times) followed by filtration into the scintillation vial containing the buffer. The crude extract was dried and weighed. The dried extract weighed 7.08 mg. The extract was partitioned between MeOH:H2O 9:1 and hexanes. The hexanes layer was dried and weighed. This layer weighed 4.77 mg. Water was added to make MeOH:H2O at a ratio of 1:1 and partitioned with methylene chloride. The CH2Cl2 layer was dried and weighed. This layer weighed 1.67 mg.
Referring to FIG. 4, the effect of growth factors on the production of fuscol in in vitro cultures of alga cells isolated from Eunicea fusca (as described above) was analyzed. […] The cells were then extracted and fuscol concentrations were determined by standard chromatographic methods (RP HPLC, detection at λ 240 nm).

SMILES	production of fuscol (fuscol concentration in extracted cells)
C=C1C[C@]23CC1(O)CC[C@H]2[C@@]12C=C[C@H](O)C(C)(C(=O)O1)[C@H]2[C@@H]3C(=O)O [giberellic acid]	Significantly more fuscol was produced
CC/C=C\CC1C(=O)CCC1CC(=O)OC (stereo not drawn) [methyl jasmonate]	Significantly more fuscol was produced
O=C(O)c1ccccc1O [salicyclic acid]	Significantly more fuscol was produced
